Measurements published in patent US20240174690A1, “ANNULATED 2-AMINO-3-CYANO THIOPHENES AND DERIVATIVES FOR THE TREATMENT OF CANCER” (BOEHRINGER INGELHEIM INTERNATIONAL GMBH, priority 2021, published 2024).
pIC50: −log10 of the molar value. Like-named read-outs stand apart in the source and are kept apart here.

Experiments:
[1] = system: KRAS G12C-dependent Ba/F3 cells; assay: Ba/F3 proliferation assay, KRAS G12C; assay type: cell-based; conditions: Mus musculus, BaF3, 72 h, AlamarBlue
Outline: (§1)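 Transforming KRAS G12 mutants replaced IL-3 dependence in retrovirally engineered Ba/F3 cells, with puromycin omitted about ten days before testing. Growth under compound was quantified with an AlamarBlue fluorescent viability stain, in duplicate, by curve fitting.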

NCI-H358 cells = assay: NCI-H358 CTG proliferation assay (120 h) (NSCLC, G12C); assay type: cell-based, human; conditions: Homo sapiens
Outline: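 NCI-H358 cells (KRAS G12C) were seeded at 2000/well (assay 1) or 200/well (assay 2) in RPMI-1640 + 10% FCS and dosed with a logarithmic series, DMSO-normalized. After 120 h, viability was read by CellTiter-Glo luminescence as percent of DMSO control, with a T0 read at dosing. IC50 came from a four-parameter fit.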

[2] = system: KRAS G12V-dependent Ba/F3 cells; assay: Ba/F3 proliferation assay, KRAS G12V; assay type: cell-based; conditions: Mus musculus, BaF3, 72 h, AlamarBlue;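 also: proliferation IC50 in KRAS G12V-dependent Ba/F3 cells read by AlamarBlue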
Outline: as §1

SAS cells = assay: SAS CTG proliferation assay (120 h) (HNSCC, wt amplified); assay type: cell-based
Outline: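 SAS cells plated at 300 per well in DMEM:F12 with 10% FCS and left overnight, then given compounds acoustically. After 120 h exposure, viability read by CellTiter-Glo as percent of DMSO control. IC50 from four-parameter non-linear regression.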

SK-CO-1 cells = assay: SK-CO-1 CTG proliferation assay (120 h) (CRC, G12V); assay type: cell-based; conditions: Homo sapiens; SK-CO-1 cells (CRC, G12V), CTG 120 h
Outline: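 SK-CO-1 colorectal cells (KRAS G12V), 500 per well in EMEM + 10% FCS, dosed with compound the day after seeding and grown 120 h at 37 °C. Viability by CellTiter-Glo luminescence as percent of DMSO control; IC50 from four-parameter non-linear regression.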

LOVO cells = assay: LOVO CTG proliferation assay (120 h) (CRC, G13D); assay type: cell-based; conditions: Homo sapiens, CTG 120 h
Outline: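 LOVO cells, 1000 per well in DMEM + 10% FCS, were plated overnight and then dosed with compound from DMSO stock. After 120 h at 37 °C, viability was read by CellTiter-Glo luminescence as a percentage of DMSO controls. IC50 was derived by four-parameter non-linear regression.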

[3] = assay 2, CTG, read-out: H358 (assay 2) IC50

pIC50 [1] | pIC50 (NCI-H358 cells; [3]) | pIC50 [2] | pIC50 (SK-CO-1 cells) | pIC50 (LOVO cells) | pIC50 (NCI-H358 cells; assay 1, CTG, read-out: H358 (assay 1) IC50) | Structure (SMILES) | pIC50 (SAS cells)
6.04 |  |  |  |  |  | C[C@H](Oc1nc(-c2onc3c2CCC[C@@]32CCCc3sc(N)c(C#N)c32)cc(N2CCN(C)C3(CC3)C2)n1)[C@@H]1CCCN1C [I-40] | 
8.52 | 8.70 | 8.40 | 8.10 | 7.64 |  | C[C@H](Oc1cc(-n2ccc(C(=O)N[C@@H]3CCOC3)n2)nc(-c2onc3c2CCC[C@@]32CCCc3sc(N)c(C#N)c32)n1)[C@@H]1CCCN1C [I-56] | 7.60
8.40 | 8.40 | 8.52 | 8.22 | 7.54 | 8.00 | C[C@H](Oc1cc(-n2ccc(C(N)=O)n2)nc(-c2noc3c2CCC[C@@]32CCCc3sc(N)c(C#N)c32)n1)[C@@H]1CCCN1C [II-21] | 7.46
6.63 |  | 6.35 | 5.56 | 6.52 |  | C[C@H](Oc1cc(N2CCN(C)C3(CC3)C2)nc(-c2onc3c2CCC[C@@]32CCCc3sc(N)c(C#N)c32)n1)[C@@H]1CCCN1C [I-41] | 5.38
8.10 | 8.40 | 8.40 | 7.51 | 6.91 |  | CCOC(=O)c1ccn(-c2cc(O[C@@H](C)[C@@H]3CCCN3C)nc(-c3noc4c3CCC[C@@]43CCCc4sc(N)c(C#N)c43)n2)n1 [II-23] | 6.65
6.88 |  | 6.75 | 6.25 | 6.16 |  | C[C@H](Oc1cc([C@@H]2CCN(C)C2)nc(-c2noc3c2CCC[C@@]32CCCc3sc(N)c(C#N)c32)n1)[C@@H]1CCCN1C [II-37] | 5.90
6.56 |  | 6.71 | 5.91 | 6.08 |  | C[C@H](Oc1cc(N2CC(N(C)C)C2)nc(-c2noc3c2CCC[C@@]32CCCc3sc(N)c(C#N)c32)n1)[C@@H]1CCCN1C [II-7] | 5.92
7.85 |  | 7.85 | 6.74 | 6.24 |  | C[C@H](Oc1cc(-c2ccn3ncnc3c2)nc(-c2onc3c2CCC[C@@]32CCCc3sc(N)c(C#N)c32)n1)[C@@H]1CCCN1C [I-33] | 7.09
6.28 |  | 6.18 | 5.98 | 6.13 |  | C[C@H](Oc1cc(N2C[C@H]3CN(C)C[C@H]3C2)nc(-c2noc3c2CCC[C@@]32CCCc3sc(N)c(C#N)c32)n1)[C@@H]1CCCN1C [II-33] | 6.22
5.80 |  | 5.78 | 5.73 | 5.87 |  | C[C@H]1CN(C)CCCN1c1cc(N2CC[C@H](N(C)C)C2)nc(-c2noc3c2CCC[C@@]32CCCc3sc(N)c(C#N)c32)n1 [II-16] | 5.41
5.98 |  |  | 5.04 | < 4.60 |  | C[C@H]1CN(C)CCCN1c1cc(N2CCN(C)CC2)nc(-c2noc3c2CCC[C@@]32CCCc3sc(N)c(C#N)c32)n1 [II-30] | 4.97
8.40 |  | 8.40 | 7.54 | 7.29 |  | C[C@H](Oc1cc(-n2ccsc2=O)nc(-c2noc3c2CCC[C@@]32CCCc3sc(N)c(C#N)c32)n1)[C@@H]1CCCN1C [II-135] | 7.16
6.49 |  | 6.47 | 5.90 | 6.06 |  | C[C@H](Oc1cc(N2CC[C@H](N(C)C)C2)nc(-c2noc3c2CCC[C@@]32CCCc3sc(N)c(C#N)c32)n1)[C@@H]1C[C@@H](F)CN1C [II-15] | 5.89
5.04 |  | 5.09 | 5.03 | 5.13 |  | C[C@H](Oc1cc(-n2ccc(C(=O)O)n2)nc(-c2noc3c2CCC[C@@]32CCCc3sc(N)c(C#N)c32)n1)[C@@H]1CCCN1C [II-24] | 4.81
6.32 |  | 5.91 | 6.15 | 5.08 |  | C[C@H](Oc1cc(N2CCNC(C)(C)C2)nc(-c2noc3c2CCC[C@@]32CCCc3sc(N)c(C#N)c32)n1)[C@@H]1CCCN1C [II-32] | 5.08
6.77 |  | 6.52 | 6.05 | 6.26 |  | C[C@H](Oc1cc(N2C[C@H](C)N(C)[C@@H](C)C2)nc(-c2onc3c2CCC[C@@]32CCCc3sc(N)c(C#N)c32)n1)[C@@H]1CCCN1C [I-43] | 5.75
